{"source": "patent US20230285374A1", "about": "“THERAPEUTIC METHODS USING VADADUSTAT” (Akebia Therapeutics, Inc., priority 2019, published 2023)", "system": "anemic DD-CKD patients with incident dialysis and limited ESA exposure", "test": "Phase 3 Incident DD-CKD (Correction/Conversion) trial, vadadustat vs darbepoetin alfa", "type": "in vivo, human", "conditions": "for Ferritin, mean / Hepcidin, mean / TSAT, mean: Incident trial", "description": "Two randomized Phase 3, open-label, sponsor-blind, active-controlled non-inferiority (NI) trials were conducted in anemic DD-CKD patients with incident dialysis and limited ESA exposure (Correction/Conversion trial) and with prevalent dialysis and established ESA treatment (Conversion trial). The primary safety endpoint was prespecified as the time to first major adverse cardiovascular event (MACE) (all-cause mortality, non-fatal MI, or non-fatal stroke) pooled across the two trials. Primary and key secondary efficacy endpoints were mean change in Hb from baseline [BL] to wks 24-36 and to wks 40-52 between two treatment arms, respectively.\nPhase 3, randomized, open-label, active-controlled study of the efficacy and safety of vadadustat versus darbepoetin alfa for the maintenance treatment of anemia after the correction of hemoglobin (Hb) or conversion from current ESA therapy in subjects who have recently initiated dialysis treatment for DD-CKD. Following a Screening period of up to 8 weeks (56 days), subjects who met all inclusion and none of the exclusion criteria were randomized 1:1 to vadadustat or darbepoetin alfa.\nRandomization were stratified by: • Geographic region (United States [US] versus European Union [EU] versus Rest of World [ROW]). • New York Heart Association congestive heart failure (CHF) Class 0 (no CHF) or I versus II or III. • Study entry hemoglobin (Hb) level (<9.5 or ≥9.5 g/dL).\nFollowing randomization, there were 4 periods during the study: • Correction/Conversion Period (Weeks 0 to 23): initial period on study medication. • Maintenance Period (Weeks 24 to 52): period on study medication during which efficacy was assessed (primary evaluation period: Weeks 24 to 36; secondary evaluation period: Weeks 40 to 52). • Long-term Treatment Period (Weeks 53 to End of Treatment [EOT]): continued study medication to assess long-term safety. • Follow-up (EOT+4 weeks): post-treatment visit (either in person or via telephone) for safety.\nInclusion Criteria: Subjects met the following criteria: • ≥18 years of age. • Initiated chronic maintenance dialysis (either peritoneal or hemodialysis) for end-stage kidney disease within 16 weeks prior to Screening. • Mean screening hemoglobin (Hb) between 8.0 and 11.0 g/dL (inclusive), as determined by the average of 2 Hb values measured by the central laboratory during Screening. • Serum ferritin ≥100 ng/mL and transferrin saturation (TSAT) ≥20% at Screening. • Folate and vitamin B12 measurements lower limit of normal at Screening. • Understands the procedures and requirements of the study and provides written informed consent and authorization for protected health information disclosure.\nExclusion Criteria: Subjects were excluded if they met any of the following criteria: • Anemia due to a cause other than CKD or subjects with active bleeding or recent blood loss. • Subjects with sickle cell disease, myelodysplastic syndromes, bone marrow fibrosis, hematologic malignancy, myeloma, hemolytic anemia, thalassemia, or pure red cell aplasia. • Red blood cell (RBC) transfusion within 8 weeks prior to randomization. • Anticipated to recover adequate kidney function to no longer require dialysis. • Aspartate aminotransferase (AST)/serum glutamic oxaloacetic transaminase (SGOT), alanine aminotransferase (ALT)/serum glutamic pyruvic transaminase (SGPT), or total bilirubin >2.0×upper limit of normal (ULN) at or during Screening. […]", "data": [{"compound": "O=C(O)CNC(=O)c1ncc(-c2cccc(Cl)c2)cc1O", "note": "[Compound 1, Vadadustat]", "values": [{"measurement": "Ferritin, mean", "setting": "Baseline", "value": 469.72, "unit": "ng/mL"}, {"measurement": "Hepcidin, mean", "setting": "Baseline", "value": 122.43, "unit": "ng/mL"}, {"measurement": "TSAT, mean", "setting": "Baseline", "value": 31.32, "unit": "%"}, {"measurement": "Ferritin, mean", "setting": "Weeks 24-36", "value": 495.73, "unit": "ng/mL"}, {"measurement": "Hepcidin, mean", "setting": "Weeks 24-36", "value": 96.05, "unit": "ng/mL"}, {"measurement": "TSAT, mean", "setting": "Weeks 24-36", "value": 31.65, "unit": "%"}, {"measurement": "Ferritin, mean", "setting": "Weeks 40-52", "value": 555.47, "unit": "ng/mL"}, {"measurement": "Hepcidin, mean", "setting": "Weeks 40-52", "value": 95.73, "unit": "ng/mL"}, {"measurement": "TSAT, mean", "setting": "Weeks 40-52", "value": 33.11, "unit": "%"}, {"measurement": "proportion of patients requiring RBC transfusions", "setting": "weeks 24-36", "value": 1.3, "unit": "%"}, {"measurement": "proportion of patients with an average hemoglobin value within the geography-specific target range", "setting": "weeks 24-36", "value": 43.6, "unit": "%"}, {"measurement": "mean (SEM) change from baseline in hemoglobin", "setting": "weeks 24 to 36", "value": "1.26 (0.11) g/dL"}, {"measurement": "mean difference between groups (vadadustat vs darbepoetin alfa) in change from baseline in hemoglobin", "setting": "weeks 24 to 36", "value": "−0.31 (0.11) g/dL"}, {"measurement": "proportion of patients requiring RBC transfusions", "setting": "weeks 40-52", "value": 2.4, "unit": "%"}, {"measurement": "proportion of patients with an average hemoglobin value within the geography-specific target range", "setting": "weeks 40-52", "value": 39.8, "unit": "%"}, {"measurement": "mean (SEM) change from baseline in hemoglobin", "setting": "weeks 40 to 52", "value": "1.42 (0.132) g/dL"}, {"measurement": "mean difference between groups (vadadustat vs darbepoetin alfa) in change from baseline in hemoglobin", "setting": "weeks 40 to 52", "value": "−0.07 (0.13) g/dL"}]}]}
